Measurements taken from US20250296959A1, “B7-H3 TARGETING PEPTIDES AND CONSTRUCTS THEREOF” (Mariana Oncology Inc., priority 2024, published 2025).
Starred links: 1 amine or outer side, 2 acyl side, 3 side chain; linkers in the order of their positions; H or OH if unused. Positions of bridges follow the written chain, without caps; N, C: chain ends. Non-standard residues stand in square brackets, D forms with d. Residues, ends and D or L forms follow the SMILES beside them. Groups on a side chain read outwards from the residue. ξ: configuration not given here. *: point of attachment. X7 = O=C(O)CN1CCN(CC(=O)O)CCN(CC(=O)NCCOCCOCCOCCOCCOCCOCCOCCOCC(=O)*)CCN(CC(=O)O)CC1; Ala(piperidin-4-yl) = O=C([C@H](CC1CCN([*:3])CC1)N[*:1])[*:2]; Phe(3-CH2NH2) = O=C([C@H](Cc1cccc(CN[*:3])c1)N[*:1])[*:2]; DOTA = O=C(O)CN1CCN(CC(=O)O)CCN(CC(=O)*)CCN(CC(=O)O)CC1; Trp(5-F) = N[C@@H](Cc1c[nH]c2ccc(F)cc12)C(=O)O; Trp(5-Me) = Cc1ccc2[nH]cc(C[C@H](N)C(=O)O)c2c1; Phe(3R-Me) = C[C@H](c1ccccc1)[C@H](N)C(=O)O; γGlu = O=C(O)[C@H](CCC(=O)[*:2])N[*:1]; 1Nal = N[C@@H](Cc1cccc2ccccc12)C(=O)O; Ala(4-THP) = N[C@@H](CC1CCOCC1)C(=O)O; Val(3-OH) = CC(C)(O)[C@H](N)C(=O)O; Cha = N[C@@H](CC1CCCCC1)C(=O)O; aThr = C[C@H](O)[C@H](N)C(=O)O; NMeNle = CCCC[C@H](NC)C(=O)O; Tle = CC(C)(C)[C@H](N)C(=O)O; hLeu = CC(C)CC[C@H](N)C(=O)O; NMeC = CN[C@@H](CS)C(=O)O; ξF = NC(Cc1ccccc1)C(=O)O

Each molecule was assayed against T1, human 4lg B7-H3 (Homo sapiens, UniProt Q5ZPR3) (assay: Affinity determination by surface plasmon resonance (SPR) to 4Ig B7-H3). Conditions: SPR KD—25° C., 4Ig B7-H3; 25° C. flow cell temperature.
T1 sequence (Q5ZPR3 29-534): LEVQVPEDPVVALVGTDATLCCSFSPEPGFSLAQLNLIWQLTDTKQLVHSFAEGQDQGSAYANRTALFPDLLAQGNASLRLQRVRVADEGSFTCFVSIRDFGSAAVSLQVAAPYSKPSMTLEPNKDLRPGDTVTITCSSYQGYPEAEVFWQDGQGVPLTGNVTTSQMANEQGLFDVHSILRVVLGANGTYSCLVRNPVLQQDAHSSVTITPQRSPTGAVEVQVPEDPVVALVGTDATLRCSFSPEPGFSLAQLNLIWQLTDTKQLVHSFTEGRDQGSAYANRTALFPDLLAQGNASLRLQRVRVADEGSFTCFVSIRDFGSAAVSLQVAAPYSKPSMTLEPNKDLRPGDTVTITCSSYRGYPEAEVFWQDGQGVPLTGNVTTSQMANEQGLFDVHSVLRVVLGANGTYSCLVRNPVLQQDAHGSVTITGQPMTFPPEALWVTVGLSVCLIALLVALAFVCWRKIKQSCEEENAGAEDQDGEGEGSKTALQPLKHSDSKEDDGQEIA

Row | SMILES | Kd [nM]
1 | CC(=O)N[C@@H](CCC(C)C)C(=O)N[C@@H](Cc1ccc(O)cc1)C(=O)N[C@H]1CSSC[C@@H](C(=O)N[C@@H](Cc2c[nH]c3ccc(F)cc23)C(=O)N[C@@H](Cc2ccccc2)C(=O)N[C@H](C(=O)N[C@H](CCCCNC(=O)CN2CCN(CC(=O)O)CCN(CC(=O)O)CCN(CC(=O)O)CC2)C(N)=O)[C@@H](C)O)NC(=O)[C@H](Cc2ccc(O)cc2)NC(=O)[C@H](C(C)C)NC(=O)[C@H](CC(=O)O)NC(=O)[C@H]([C@@H](C)O)NC(=O)[C@H](CCCCN)NC(=O)CNC(=O)[C@H](C(C)C)NC1=O [compound 198, Ac-hLeu-Y-C-V-G-K-T-D-V-Y-C-5FW-F-Thr-dLys(DOTA)-CONH2] (Ac-[hLeu]YCVGKTDVYC[Trp(5-F)]FT[dK](DOTA)-NH2; disulfide 3-11) | 1 to 10
2 | CC(=O)N[C@@H](CCC(C)C)C(=O)N[C@@H](Cc1ccc(O)cc1)C(=O)N[C@H]1CSSC[C@@H](C(=O)N[C@@H](Cc2c[nH]c3ccc(F)cc23)C(=O)N[C@@H](Cc2ccccc2)C(=O)N[C@@H](C(=O)N[C@H](CCCCNC(=O)CN2CCN(CC(=O)O)CCN(CC(=O)O)CCN(CC(=O)O)CC2)C(N)=O)[C@H](C)O)NC(=O)[C@H](Cc2ccc(O)cc2)NC(=O)[C@H](C(C)C)NC(=O)[C@H](CC(=O)O)NC(=O)[C@H](Cc2ccc(O)cc2)NC(=O)[C@H](CCCCN)NC(=O)CNC(=O)[C@H](C(C)C)NC1=O [compound 163, Ac-hLeu-Y-C-V-G-K-Y-D-V-Y-C-5FW-F-dThr-dLys(DOTA)-CONH2] (Ac-[hLeu]YCVGKYDVYC[Trp(5-F)]F[dT][dK](DOTA)-NH2; disulfide 3-11) | 10 to 100
3 | CCCC[C@@H](C(=O)N[C@H](C(=O)N[C@H](CCCCNC(=O)CN1CCN(CC(=O)O)CCN(CC(=O)O)CCN(CC(=O)O)CC1)C(N)=O)[C@@H](C)O)N(C)C(=O)[C@H](Cc1c[nH]c2ccc(F)cc12)NC(=O)[C@@H]1CSSC[C@H](NC(=O)[C@H](Cc2ccc(O)cc2)NC(=O)[C@H](CCC(C)C)NC(C)=O)C(=O)N[C@@H](C(C)C)C(=O)NCC(=O)N[C@@H](CCCCN)C(=O)N[C@@H](Cc2ccc(O)cc2)C(=O)N[C@@H](CC(=O)O)C(=O)N[C@@H](C(C)C)C(=O)N[C@@H](Cc2ccc(O)cc2)C(=O)N1 [compound 176, Ac-hLeu-Y-C-V-G-K-Y-D-V-Y-C-5FW-NMeNle-Thr-dLys(DOTA)-CONH2] (Ac-[hLeu]YCVGKYDVYC[Trp(5-F)][NMeNle]T[dK](DOTA)-NH2; disulfide 3-11) | 1 to 10
4 | CC(=O)N[C@@H](CCC(C)C)C(=O)N[C@@H](Cc1ccc(O)cc1)C(=O)N[C@H]1CSSC[C@@H](C(=O)N[C@@H](Cc2c[nH]c3ccccc23)C(=O)N[C@@H](Cc2ccccc2)C(=O)N[C@H](C(=O)N[C@H](CCCCNC(=O)CN2CCN(CC(=O)O)CCN(CC(=O)O)CCN(CC(=O)O)CC2)C(N)=O)[C@@H](C)O)NC(=O)[C@H](Cc2ccc(O)cc2)NC(=O)[C@H](C(C)C)NC(=O)[C@H](CC(=O)O)NC(=O)[C@H](Cc2ccc(O)cc2)NC(=O)[C@H](CCCCN)NC(=O)CNC(=O)[C@H](C(C)C)NC1=O [Cpd #67, Ac-hLeu-Y-C-V-G-K-Y-D-V-Y-C-W-F-Thr-dLys(DOTA)-CONH2] (Ac-[hLeu]YCVGKYDVYCWFT[dK](DOTA)-NH2; disulfide 3-11) | 1 to 10
5 | CC(=O)N[C@@H](CCC(C)C)C(=O)N[C@@H](Cc1ccc(O)cc1)C(=O)N[C@H]1CSSC[C@@H](C(=O)N[C@@H](Cc2c[nH]c3ccccc23)C(=O)N[C@@H](Cc2ccccc2)C(=O)N[C@H](C(=O)N[C@H](CCCCNC(=O)CN2CCN(CC(=O)O)CCN(CC(=O)O)CCN(CC(=O)O)CC2)C(N)=O)[C@@H](C)O)NC(=O)[C@H](Cc2ccc(O)cc2)NC(=O)[C@H](C(C)C)NC(=O)[C@H](CC(=O)O)NC(=O)[C@H](Cc2ccc(O)cc2)NC(=O)[C@H](CCCCN)NC(=O)CNC(=O)[C@H]([C@H](C)O)NC1=O [compound 120, Ac-hLeu-Y-C-alloThr-G-K-Y-D-V-Y-C-W-F-Thr-dLys(DOTA)-CONH2] (Ac-[hLeu]YC[aThr]GKYDVYCWFT[dK](DOTA)-NH2; disulfide 3-11) | 10 to 100

The next lines start with the values.

Row | Kd [nM] | SMILES
6 | 1 to 10 | CC(=O)N[C@@H](CCC(C)C)C(=O)N[C@@H](Cc1ccc(O)cc1)C(=O)N[C@H]1CSSC[C@@H](C(=O)N[C@@H](Cc2cccc3ccccc23)C(=O)NC(Cc2ccccc2)C(=O)N2CCC[C@H]2C(=O)N[C@H](CCCCNC(=O)CC[C@H](NC(=O)CN2CCN(CC(=O)O)CCN(CC(=O)O)CCN(CC(=O)O)CC2)C(=O)O)C(N)=O)NC(=O)[C@H](Cc2ccc(O)cc2)NC(=O)[C@H](C(C)C)NC(=O)[C@H](CC(=O)O)NC(=O)[C@H](CC2CCCCC2)NC(=O)[C@H](CC2CCNCC2)NC(=O)CNC(=O)[C@H](C(C)(C)C)NC1=O (stereo partly drawn) [compound 277, Ac-hLeu-Y-C-Tbg-G-PipAla-CHA-D-V-Y-C-1Nal-F-Pro-dLys(gE-DOTA)-CONH2] (Ac-[hLeu]YC[Tle]G[Ala(piperidin-4-yl)][Cha]DVYC[1Nal][ξF]P[dK]([γGlu-DOTA])-NH2; disulfide 3-11)
7 | 1 to 10 | CC(=O)N[C@@H](CCC(C)C)C(=O)N[C@@H](Cc1ccc(O)cc1)C(=O)N[C@H]1CSSC[C@@H](C(=O)N[C@@H](Cc2cccc3ccccc23)C(=O)N[C@@H](Cc2ccccc2)C(=O)N2CCC[C@H]2C(N)=O)NC(=O)[C@H](Cc2ccc(O)cc2)NC(=O)[C@H](C(C)C)NC(=O)[C@H](CC(=O)O)NC(=O)[C@H](Cc2cccc(CNC(=O)CC[C@H](NC(=O)CN3CCN(CC(=O)O)CCN(CC(=O)O)CCN(CC(=O)O)CC3)C(=O)O)c2)NC(=O)[C@H](CCCCN)NC(=O)CNC(=O)[C@H](C(C)(C)C)NC1=O [compound 254, Ac-hLeu-Y-C-Tbg-G-K-MAF(gE-DOTA)-D-V-Y-C-1Nal-F-Pro-CONH2] (Ac-[hLeu]YC[Tle]GK[Phe(3-CH2NH2)]([γGlu-DOTA])DVYC[1Nal]FP-NH2; disulfide 3-11)
8 | 1 to 10 | CC(=O)N[C@@H](CCC(C)C)C(=O)N[C@@H](Cc1ccc(O)cc1)C(=O)N(C)[C@H]1CSSC[C@@H](C(=O)N[C@@H](Cc2c[nH]c3ccc(F)cc23)C(=O)N[C@@H](Cc2ccccc2)C(=O)N[C@H](C(=O)N[C@H](CCCCNC(=O)CN2CCN(CC(=O)O)CCN(CC(=O)O)CCN(CC(=O)O)CC2)C(=O)O)[C@@H](C)O)NC(=O)[C@H](Cc2ccc(O)cc2)NC(=O)[C@H](C(C)C)NC(=O)[C@H](CC(=O)O)NC(=O)[C@H](CC2CCOCC2)NC(=O)[C@H](CCCCN)NC(=O)CNC(=O)[C@H](C(C)C)NC1=O [compound 361, Ac-hLeu-Y-NMeCys-V-G-K-ThpA-D-V-Y-C-5FW-F-Thr-dLys(DOTA)-COOH] (Ac-[hLeu]Y[NMeC]VGK[Ala(4-THP)]DVYC[Trp(5-F)]FT[dK](DOTA)-OH; disulfide 3-11)
9 | < 1 | CC(=O)N[C@@H](CCC(C)C)C(=O)N[C@@H](Cc1ccc(O)cc1)C(=O)N[C@H]1CSSC[C@@H](C(=O)N[C@@H](Cc2cccc3ccccc23)C(=O)N[C@@H](Cc2ccccc2)C(=O)N2CCC[C@H]2C(=O)N[C@H](CCCCNC(=O)COCCOCCOCCOCCOCCOCCOCCOCCNC(=O)CN2CCN(CC(=O)O)CCN(CC(=O)O)CCN(CC(=O)O)CC2)C(N)=O)NC(=O)[C@H](Cc2ccc(O)cc2)NC(=O)[C@H](C(C)C)NC(=O)[C@H](CC(=O)O)NC(=O)[C@H](CC2CCOCC2)NC(=O)[C@H](CCCCN)NC(=O)CNC(=O)[C@H](C(C)(C)C)NC1=O [compound 280, Ac-hLeu-Y-C-Tbg-G-K-ThpA-D-V-Y-C-1Nal-F-Pro-dLys(PEG8-DOTA)-CONH2] (Ac-[hLeu]YC[Tle]GK[Ala(4-THP)]DVYC[1Nal]FP[dK](X7)-NH2; disulfide 3-11)

Same assay, conditions: SPR KD—37° C., 4Ig B7-H3; 37° C. flow cell temperature

Row | Kd [nM] | SMILES
10 | 1 to 10 | CC(=O)N[C@@H](CCC(C)C)C(=O)N[C@@H](Cc1ccc(O)cc1)C(=O)N[C@H]1CSSC[C@@H](C(=O)N[C@@H](Cc2c[nH]c3ccc(C)cc23)C(=O)N[C@@H](Cc2ccccc2)C(=O)N[C@H](C(=O)N[C@H](CCCCNC(=O)CN2CCN(CC(=O)O)CCN(CC(=O)O)CCN(CC(=O)O)CC2)C(=O)O)C(C)(C)O)NC(=O)[C@H](Cc2ccc(O)cc2)NC(=O)[C@H](C(C)C)NC(=O)[C@H](CC(=O)O)NC(=O)[C@H](CC2CCOCC2)NC(=O)[C@H](CC2CCNCC2)NC(=O)CNC(=O)[C@H](C(C)(C)C)NC1=O [compound 471, Ac-hLeu-Y-C-Tbg-G-PipAla-ThpA-D-V-Y-C-5MeW-F-hydroxyVal-dLys(DOTA)-COOH] (Ac-[hLeu]YC[Tle]G[Ala(piperidin-4-yl)][Ala(4-THP)]DVYC[Trp(5-Me)]F[Val(3-OH)][dK](DOTA)-OH; disulfide 3-11)
11 | < 1 | CC(=O)N[C@@H](CCC(C)C)C(=O)N[C@@H](Cc1ccc(O)cc1)C(=O)N[C@H]1CSSC[C@@H](C(=O)N[C@@H](Cc2c[nH]c3ccc(F)cc23)C(=O)N[C@H](C(=O)N[C@H](C(=O)N[C@H](CCCCNC(=O)CN2CCN(CC(=O)O)CCN(CC(=O)O)CCN(CC(=O)O)CC2)C(=O)O)C(C)(C)O)[C@H](C)c2ccccc2)NC(=O)[C@H](Cc2ccc(O)cc2)NC(=O)[C@H](C(C)C)NC(=O)[C@H](CC(=O)O)NC(=O)[C@H](CC2CCOCC2)NC(=O)[C@H](CC2CCNCC2)NC(=O)CNC(=O)[C@H](C(C)(C)C)NC1=O [compound 434, Ac-hLeu-Y-C-Tbg-G-PipAla-ThpA-D-V-Y-C-5FW-[(2S, 3R)beta-Me-Phe]-hydroxyVal-dLys(DOTA)-COOH] (Ac-[hLeu]YC[Tle]G[Ala(piperidin-4-yl)][Ala(4-THP)]DVYC[Trp(5-F)][Phe(3R-Me)][Val(3-OH)][dK](DOTA)-OH; disulfide 3-11)
